Experimental findings from article PMC7766161, “PARP Theranostic Auger Emitters Are Cytotoxic in BRCA Mutant Ovarian Cancer and Viable Tumors from Ovarian Cancer Patients Enable Ex-Vivo Screening of Tumor Response” (Molecules, 2020) are described below.

As usually defined, the Kd is the free concentration of one partner at which half of the binding sites on the other are occupied at equilibrium, for simple one-to-one binding.

The target of the assay is T1, PARP-1 (Homo sapiens, UniProt P09874).
T1 construct: gene PARP1
Kind of assay: saturation radioligand binding in OVCAR8 wt cells (nonspecific binding with […] veliparib). It is filed as cell-based.

T1 sequence (P09874 2-1014): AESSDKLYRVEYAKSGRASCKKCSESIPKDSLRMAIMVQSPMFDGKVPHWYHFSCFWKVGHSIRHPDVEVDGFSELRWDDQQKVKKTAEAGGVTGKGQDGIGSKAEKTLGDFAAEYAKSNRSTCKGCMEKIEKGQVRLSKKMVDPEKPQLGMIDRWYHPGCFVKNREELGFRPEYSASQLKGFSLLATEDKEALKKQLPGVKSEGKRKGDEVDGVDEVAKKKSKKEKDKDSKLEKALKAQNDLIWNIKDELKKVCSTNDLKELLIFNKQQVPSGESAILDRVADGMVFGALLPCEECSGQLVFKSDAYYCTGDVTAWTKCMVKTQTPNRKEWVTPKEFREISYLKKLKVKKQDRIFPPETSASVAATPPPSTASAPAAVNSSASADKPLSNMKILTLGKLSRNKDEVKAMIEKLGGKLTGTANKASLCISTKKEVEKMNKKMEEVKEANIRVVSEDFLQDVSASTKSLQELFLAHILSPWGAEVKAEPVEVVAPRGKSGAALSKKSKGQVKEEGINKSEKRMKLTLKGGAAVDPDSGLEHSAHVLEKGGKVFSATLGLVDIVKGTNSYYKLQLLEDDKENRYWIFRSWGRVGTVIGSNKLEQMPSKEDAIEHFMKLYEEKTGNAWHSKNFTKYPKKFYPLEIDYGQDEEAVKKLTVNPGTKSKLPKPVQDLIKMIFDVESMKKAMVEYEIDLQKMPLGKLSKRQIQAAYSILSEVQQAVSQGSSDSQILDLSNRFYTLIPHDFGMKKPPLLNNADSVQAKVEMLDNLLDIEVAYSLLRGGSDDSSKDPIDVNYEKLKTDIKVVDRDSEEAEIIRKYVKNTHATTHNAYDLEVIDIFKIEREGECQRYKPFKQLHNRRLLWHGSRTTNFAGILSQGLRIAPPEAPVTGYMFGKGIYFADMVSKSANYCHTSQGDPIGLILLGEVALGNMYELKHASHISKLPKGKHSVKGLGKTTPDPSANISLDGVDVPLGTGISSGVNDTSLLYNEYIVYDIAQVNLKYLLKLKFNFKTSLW

[125I]KX1: binding was put at a Kd of 7.7 nM.
